For this assay, the system named is rat small-intestinal brush border membrane vesicles. Description: Inhibitory effect on 33PO4 uptake into rat small-intestinal brush border membrane vesicles (rapid filtration method). Type of assay: biochemical, Wistar female rat. The settings on record: 1 µM test compound; 33PO4 uptake into rat small-intestinal BBMVs, 60 seconds. As to the method: The ^33PO4 transport activity of the small-intestinal BBMVs was determined by the rapid filtration method. […] Then, ice-cold buffer C (110 mM NaCl, 1 mM KH2PO4, and 10 mM HEPES (pH 7.5)) was added to each reaction mixture, which was immediately suction-filtered through a Millipore filter. The filter was washed with buffer C, and each sample was then dissolved in a liquid scintillator. The amount of ^33PO4 uptake into BBMVs was measured using a liquid scintillation counter. […]

For the compound `C#Cc1ccc(CN2C(=O)C(C(=O)Nc3ccc(C(F)(F)F)cc3-c3cc(C(F)(F)F)ncn3)=C(O)[C@@]3(C)CCCN23)c(F)c1F` [Example 126, (4aR)-1-[(4-Ethynyl-2,3-difluorophenyl)methyl]-4-hydroxy-4a-methyl-2-oxo-N-[4-(trifluoromethyl)-2-[6-(trifluoromethyl)pyrimidin-4-yl]phenyl]-6,7-dihydro-5H-pyrrolo[1.2-b]pyridazine-3-carboxamide], the “Rate of uptake inhibition (%) (1 µM)” value was determined as 71%.
The same measure for `C[C@]12CCCN1N(Cc1cccc(F)c1F)C(=O)C(C(=O)Nc1ccc(Br)cc1-c1ccc(Cl)nc1)=C2O` [Example 122, (4aR)-N-[4-Bromo-2-(6-chloropyridin-3-yl)phenyl]-1-[(2,3-difluorophenyl)methyl]-4-hydroxy-4a-methyl-2-oxo-6,7-dihydro-5H-pyrrolo[1,2-b]pyridazine-3-carboxamide]: 82%.
The same measure for `CN1N(Cc2cccc(F)c2F)C(=O)C(C(=O)Nc2ccc(C(F)(F)F)cc2-c2cc(C#N)ncn2)=C(O)C1(C)C` [Example 303]: 42%; for `CN1N(Cc2ccc(OCCN3CCN(S(C)(=O)=O)CC3)c(F)c2F)C(=O)C(C(=O)Nc2ccc(C(F)(F)F)cc2-c2cc(C(F)(F)F)ncn2)=C(O)C12CCC2` [Example 363]: 11%.
The same measure for `C[C@]12CCCN1N(Cc1ccc(Cl)cc1)C(=O)C(C(=O)Nc1ccc(C(F)(F)F)cc1-c1cc(C(F)(F)F)ncn1)=C2O` [Example 182]: 86%.
In the case of `CN(CCOCCOc1ccc(CN2C(=O)C(C(=O)Nc3ccc(C(F)(F)F)cc3-c3cc(C(F)(F)F)ncn3)=C(O)C3(CCCC3)N2C)c(F)c1F)C[C@H](O)[C@@H](O)[C@H](O)[C@H](O)CO` [Example 420, 7-[[2,3-Difluoro-4-[2-[2-[methyl-[(2S,3R,4R,5R)-2,3,4,5,6-pentahydroxyhexyl]amino]ethoxy]ethoxy]phenyl]methyl]-10-hydroxy-6-methyl-8-oxo-N-[4-(trifluoromethyl)-2-[6-(trifluoromethyl)pyrimidin-4-yl]phenyl]-6,7-diazaspiro[4.5]dec-9-ene-9-carboxamide], the “Rate of uptake inhibition (%) (1 µM)” value was 19%.
The value for `C[C@]12CCCN1N(Cc1c(Cl)cc(OCCN3CCOCC3)cc1Cl)C(=O)C(C(=O)Nc1cnc(C(F)(F)F)nc1-c1ccc(C(F)(F)F)nc1)=C2O.Cl` [Example 146, (4aR)-1-[[2,6-Dichloro-4-(2-morpholin-4-ylethoxy)phenyl]methyl]-4-hydroxy-4a-methyl-2-oxo-N-[2-(trifluoromethyl)-4-[6-(trifluoromethyl)pyridin-3-yl]pyrimidin-5-yl]-6,7-dihydro-5H-pyrrolo[1,2-b]pyridazine-3-carboxamide hydrochloride] was 71%; that for `COCC(C)(C)N(C)CCOc1ccc(CN2C(=O)C(C(=O)Nc3ccc(C(F)(F)F)cc3-c3cc(C(F)(F)F)ncn3)=C(O)C3(CCC3)N2C)c(F)c1F` [Example 349] was 55%.
The same measure for `C[C@]12CCCN1N(Cc1c(F)cc(OCCCCCCOC[C@H](O)CO)cc1F)C(=O)C(C(=O)Nc1ccc(C(F)(F)F)cc1-c1ccc(C(F)(F)F)nc1)=C2O` [Example 155]: 77%; for `Cc1cc(NC(=O)C2=C(O)[C@@]3(C)CCCN3N(Cc3cccc(F)c3F)C2=O)c(C(F)(F)F)o1` [Example 7]: 69%; for `CN1N(Cc2ccc(OCC(=O)N3CCOCC3)c(F)c2F)C(=O)C(C(=O)Nc2ccc(C(F)(F)F)cc2-c2cc(C(F)(F)F)ncn2)=C(O)C12CCC2` [Example 336, 8-[[2,3-Difluoro-4-(2-morpholin-2-oxo-ethoxy)phenyl]methyl]-5-hydroxy-9-methyl-7-oxo-N-[4-(trifluoromethyl)-2-[6-(trifluoromethyl)pyrimidin-4yl]phenyl]-8,9-diazaspiro[3.5]non-5-ene-6-carboxamide]: 44%.
The value for `CC(CN1CCOCC1)Oc1ccc(CN2C(=O)C(C(=O)Nc3ccc(C(F)(F)F)cc3-c3cc(C(F)(F)F)ncn3)=C(O)C3(CCC3)N2C)c(F)c1F` (stereo not shown) [Example 408] was 47%.
Consider `C[C@]12CCCN1N(Cc1cc(F)cc(F)c1)C(=O)C(C(=O)Nc1cc(F)c(Br)c(F)c1)=C2O` [Example 190], for which the “Rate of uptake inhibition (%) (1 µM)” value stood at 84%.
As to `COC(=O)[C@@H]1CCCN1CCOc1ccc(CN2C(=O)C(C(=O)Nc3ccc(C(F)(F)F)cc3-c3cc(C(F)(F)F)ncn3)=C(O)C3(CCC3)N2C)c(F)c1F` [Example 355], the “Rate of uptake inhibition (%) (1 µM)” value came out at 36%.
The same measure for “(4aS,5S,8R)-1-(3-Fluorobenzyl)-4-hydroxy-N-(5-methyl-2-(trifluoromethyl)furan-3-yl)-2-oxo-2,4a,5,6,7,8-hexahydro-1H-5,8-methanopyrido[1,2-b]pyridazine-3-carboxamide [Example 20]”: 21%; for `C[C@H]1COC[C@H](C)N1CCOc1ccc(CN2C(=O)C(C(=O)Nc3ccc(C(F)(F)F)cc3-c3cc(C(F)(F)F)ncn3)=C(O)C3(CCC3)N2C)c(F)c1F` [Example 343]: 68%; for `CN1N(Cc2ccc(OCCCCCOC[C@H](O)CO)c(F)c2F)C(=O)C(C(=O)Nc2ccc(C(F)(F)F)cc2-c2cc(C(F)(F)F)ncn2)=C(O)C12CCC2` [Example 391]: 42%.
The value for `COc1cccc(-c2cc(C(F)(F)F)ccc2NC(=O)C2=C(O)[C@@]3(C)CCCN3N(Cc3ccc(CCCOCCOCCOCCO)c(F)c3F)C2=O)c1OC` [Example 142] was 76%; that for `C[C@]12CCCN1N(Cc1ccc(F)c(Br)c1)C(=O)C(C(=O)Nc1ccc(C(F)(F)F)cc1-c1cc(C(F)(F)F)ncn1)=C2O` [Example 184] was 79%; that for `C[C@]12CCCN1N(Cc1ccc(C#N)cc1)C(=O)C(C(=O)Nc1cc(F)c(Br)c(F)c1)=C2O` [Example 222] was 97%.
The same measure for “(4aR)-4a-Ethyl-1-[(3-fluorophenyl)methyl]-4-hydroxy-N-[5-methyl-2-(trifluoromethyl)furan-3-yl]-2-oxo-6,7-dihydro-5H-pyrrolo[1,2-b]pyridazine-3-carboxamide [Example 9]”: 63%; for `CN1N(Cc2ccc(NCCN3CCOCC3)c(F)c2F)C(=O)C(C(=O)Nc2ccc(C(F)(F)F)cc2-c2cc(C(F)(F)F)ncn2)=C(O)C12CCCC2` [Example 447]: 50%; for `CC(C)(C)[C@H]1C(O)=C(C(=O)Nc2ccc(Cl)cc2-c2ccc(C(F)(F)F)nc2)C(=O)N(Cc2cccc(F)c2F)N1CC(F)(F)F` [Example 247]: 51%.
Turning to `Cc1cc(NC(=O)C2=C(O)[C@@H]3CCCN3N(Cc3cccc(F)c3)C2=O)c(C(F)(F)F)o1` [Example 1, (4aS)-1-[(3-Fluorophenyl)methyl]-4-hydroxy-N-[5-methyl-2-(trifluoromethyl)furan-3-yl]-2-oxo-4a,5,6,7-tetrahydropyrrolo[1,2-b]pyridazine-3-carboxamide], the “Rate of uptake inhibition (%) (1 µM)” value was found to be 28%.
The same measure for `CN(CCOc1ccc(CN2C(=O)C(C(=O)Nc3ccc(C(F)(F)F)cc3-c3cc(C(F)(F)F)ncn3)=C(O)C3(CCC3)N2C)c(F)c1F)C1CCOC1` (stereo not shown) [Example 338, 6-[[2,3-Difluoro-4-[2-[methyl(oxolan-3-yl)amino]ethoxy]phenyl]methyl]-9-hydroxy-5-methyl-7-oxo-N-[4-(trifluoromethyl)-2-[6-(trifluoromethyl)pyrimidin-4-yl]phenyl]-5,6-diazaspiro[3.5]non-8-ene-8-carboxamide]: 66%; for `C[C@]12CCCN1N(Cc1cccc(F)c1F)C(=O)C(C(=O)Nc1ccc(Br)cc1-c1cc(C(F)(F)F)ncn1)=C2O` [Example 64]: 77%.
Take `CN1N(Cc2ccc(OCCN3CCOC(=O)C3)c(F)c2F)C(=O)C(C(=O)Nc2ccc(C(F)(F)F)cc2-c2cc(C(F)(F)F)ncn2)=C(O)C12CCC2` [Example 337, 8-[[2,3-Difluoro-4-[2-(2-oxomorpholin-4-yl)ethoxy]phenyl]methyl]1-5-hydroxy-9-methyl-7-oxo-N-[4-(trifluoromethyl)-2[6-(trifluoromethyl)pyrimidin-4-yl]phenyl]-8,9-diazaspiro[3.5]non-5-ene-6-carboxamide]: the “Rate of uptake inhibition (%) (1 µM)” value came out at 47%.
The same measure for `COC(=O)CN(C)CCOc1ccc(CN2C(=O)C(C(=O)Nc3ccc(C(F)(F)F)cc3-c3cc(C(F)(F)F)ncn3)=C(O)C3(CCC3)N2C)c(F)c1F` [Example 346]: 42%.
The value for `CN1N(Cc2ccc(OCCCCOC[C@H](O)CO)c(F)c2F)C(=O)C(C(=O)Nc2ccc(C(F)(F)F)cc2-c2ccc(C(F)(F)F)nc2)=C(O)C12CCCC2` [Example 387] was 23%.
The same measure for `COC(=O)c1cccc(CN2C(=O)C(C(=O)Nc3ccc(C(F)(F)F)cc3-c3cc(C(F)(F)F)ncn3)=C(O)[C@@]3(C)CCCN23)c1` [Example 183]: 82%; for `CN1N(Cc2ccc(OCCN[C@@H](CC(=O)O)C(=O)O)c(F)c2F)C(=O)C(C(=O)Nc2ccc(C(F)(F)F)cc2-c2cc(C(F)(F)F)ncn2)=C(O)C12CCCC2` [Example 381, (2S)-2-[2-[2,3-Difluoro-4-[[10-hydroxy-6-methyl-8-oxo-9-[[4-(trifluoromethyl)-2-[6-(-trifluoromethyl)pyrimidin-4-yl]phenyl]carbamoyl]-6,7-diazaspiro[4.5]dec-9-en-7-yl]methyl]phenoxy]ethylamino]butanedioate]: 28%.

Values taken from EP2975030B1, “DIHYDROPYRIDAZINE-3,5-DIONE DERIVATIVE” (Chugai Seiyaku Kabushiki Kaisha, priority 2013, dated 2014).
